Measured values reported in patent US20260184663A1, “INDENE COMPOUNDS, PHARMACEUTICAL COMPOSITIONS THEREOF, AND THEIR THERAPEUTIC APPLICATIONS” (NucMito Pharmaceuticals co. Ltd., priority 2022, published 2026).
Read-outs that look alike come from different tables or passages of the source.

Assays:
Format in all cases: cell-based
HeLa (cervical cancer) = experiment: Antiproliferative activity (CCK-8 cell viability), HeLa; conditions: Homo sapiens, 72 h, read-out: Antiproliferative activity in cancerous cells, HELA (inhibition of cell growth); for inhibition at 3.3 µM: Compound concentration: 3.3 μM; for inhibition at 10 µM: Compound concentration: 10 μM; for inhibition at 30 µM: Compound concentration: 30 μM
Summary of the method: (§1)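 Cells were seeded at 2,000-5,000/well (HeLa in MEM, HepG2 and SW480 in DMEM, A549 in F-12K, all with 10% FBS) and treated with compound at 3.3, 10 or 30 μM for 72 h at 37° C. CCK-8 was added for 4 h, absorbance was read at 450 nm, and viability was expressed relative to DMSO-treated wells.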

[1] = system: MDA-MB-231 (breast cancer); experiment: Antiproliferative activity (CCK-8 cell viability), MDA-MB-231; conditions: Homo sapiens, 72 h; for inhibition at 3.3 µM: Compound concentration: 3.3 μM; for inhibition at 10 µM: Compound concentration: 10 μM; for inhibition at 30 µM: Compound concentration: 30 μM
Summary of the method: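 In this CCK-8 viability assay, MDA-MB-231 cells maintained in Dulbecco's modified Eagle's medium containing 10% fetal bovine serum were placed in 96-well plates (2,000-5,000 cells/well) and treated with compound for 72 h at 37° C. A 4 h incubation with 10 μL CCK-8 followed, plates were read at 450 nm, and viability was expressed against DMSO vehicle wells across replicates.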

[2] = system: A549 (lung adenocarcinoma); experiment: Antiproliferative activity (CCK-8 cell viability), A549; conditions: Homo sapiens, 72 h; for inhibition at 3.3 µM: Compound concentration: 3.3 μM; for inhibition at 10 µM: Compound concentration: 10 μM; for inhibition at 30 µM: Compound concentration: 30 μM
Summary of the method: as §1

[3] = system: B16F10 (malignant melanoma); experiment: Antiproliferative activity (CCK-8 cell viability), B16F10; conditions: Mus musculus, 72 h, read-out: Antiproliferative activity in cancerous cells, B16F10 (inhibition of cell growth); for inhibition at 3.3 µM: B16-F10, Compound concentration: 3.3 μM; for inhibition at 10 µM: B16-F10, Compound concentration: 10 μM; for inhibition at 30 µM: B16-F10, Compound concentration: 30 μM
Summary of the method: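 Attached B16F10 cells in 96-well plates were incubated with compound at 37° C for 72 h, followed by 10 μL CCK-8 reagent per well and a further 4 h incubation. A multi-well plate reader measured absorbance at 450 nm. Percent viability across replicates was calculated against DMSO vehicle-treated cells.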

[4] = system: A431 (epidermoid carcinoma); experiment: Antiproliferative activity (CCK-8 cell viability), A431; conditions: Homo sapiens, 72 h, read-out: Antiproliferative activity in cancerous cells, A431 (inhibition of cell growth); for inhibition at 3.3 µM: A-431, Compound concentration: 3.3 μM; for inhibition at 10 µM: A-431, Compound concentration: 10 μM; for inhibition at 30 µM: A-431, Compound concentration: 30 μM
Summary of the method: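 Cell viability of compound-treated A431 cells was measured with a Cell Counting Kit-8. Each well received 10 μL of CCK-8 after 72 h of compound exposure, followed by 4 h incubation at 37° C. and a 450 nm plate-reader measurement. Percent viability was calculated relative to DMSO controls across replicates.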

HepG2 (liver cancer) = experiment: Antiproliferative activity (CCK-8 cell viability), HepG2; conditions: Homo sapiens, 72 h, read-out: Antiproliferative activity in cancerous cells, HepG2 (inhibition of cell growth); for inhibition at 3.3 µM: Compound concentration: 3.3 μM; for inhibition at 10 µM: Compound concentration: 10 μM; for inhibition at 30 µM: Compound concentration: 30 μM
Summary of the method: as §1

SW480 (colon cancer) = experiment: Antiproliferative activity (CCK-8 cell viability), SW480; conditions: Homo sapiens, 72 h; for inhibition at 3.3 µM: Compound concentration: 3.3 μM; for inhibition at 10 µM: Compound concentration: 10 μM; for inhibition at 30 µM: Compound concentration: 30 μM
Summary of the method: as §1

[5] = read-out: Antiproliferative activity in cancerous cells, MDA-MB-231 (inhibition of cell growth)
[6] = read-out: Antiproliferative activity in cancerous cells, A549 (inhibition of cell growth)
[7] = read-out: Antiproliferative activity in cancerous cells, SW480 (inhibition of cell growth)

Row | SMILES | inhibition at 3.3 µM (HeLa (cervical cancer)) [%] | inhibition at 10 µM (HeLa (cervical cancer)) [%] | inhibition at 3.3 µM [1, 5] [%] | inhibition at 10 µM [1, 5] [%] | inhibition at 3.3 µM [2, 6] [%] | inhibition at 10 µM [2, 6] [%] | inhibition at 3.3 µM [3] [%] | inhibition at 10 µM [3] [%] | inhibition at 3.3 µM [4] [%] | inhibition at 10 µM [4] [%] | inhibition at 3.3 µM (HepG2 (liver cancer)) [%] | inhibition at 10 µM (HepG2 (liver cancer)) [%] | inhibition at 3.3 µM (SW480 (colon cancer); [7]) [%] | inhibition at 10 µM (SW480 (colon cancer); [7]) [%] | inhibition at 30 µM (HeLa (cervical cancer)) [%] | inhibition at 30 µM [1, 5] [%] | inhibition at 30 µM [2, 6] [%] | inhibition at 30 µM [3] [%] | inhibition at 30 µM [4] [%] | inhibition at 30 µM (HepG2 (liver cancer)) [%] | other results
1 | CC1=C(CC(=O)O)c2cc(F)ccc2/C1=C\c1cccc(CS(=O)(=O)c2ccc(F)cc2)c1 [B51, (Z)-2-(5-Fluoro-1-(3-(((4-fluorophenyl)sulfonyl)methyl)benzylidene)-2-methyl-1H-inden-3-yl)acetic acid] | 30 to 50 | ≥ 50 | 30 to 50 | ≥ 50 | < 30 | 30 to 50 | < 30 | ≥ 50 | 30 to 50 | 30 to 50 | < 30 | < 30 | < 30 | 30 to 50 | – | – | – | – | – | – | –
2 | CC1=C(CC(=O)O)c2cc(F)ccc2/C1=C\c1ccc(OC2CCN(C(=O)OC(C)(C)C)CC2)cc1 [C201, (Z)-2-(1-(4-((1-(Tert-butoxycarbonyl)piperidin-4-yl)oxy)benzylidene)-5-fluoro-2-methyl-1H-inden-3-yl)acetic acid] | < 30 | ≥ 50 | < 30 | ≥ 50 | < 30 | ≥ 50 | < 30 | ≥ 50 | ≥ 50 | ≥ 50 | < 30 | ≥ 50 | < 30 | ≥ 50 | ≥ 50 | ≥ 50 | ≥ 50 | ≥ 50 | ≥ 50 | ≥ 50 | inhibition at 30 µM (SW480 (colon cancer); [7]): ≥ 50%
3 | CC1=C(CC(=O)O)c2cc(F)ccc2/C1=C\c1cccc(C(O)c2ccccc2)c1 (stereo not shown) [C310, (Z)-2-(5-Fluoro-1-(3-(hydroxy(phenyl)methyl)benzylidene)-2-methyl-1H-inden-3-yl)acetic acid] | ≥ 50 | ≥ 50 | < 30 | ≥ 50 | 30 to 50 | 30 to 50 | < 30 | 30 to 50 | ≥ 50 | 30 to 50 | 30 to 50 | ≥ 50 | ≥ 50 | ≥ 50 | ≥ 50 | ≥ 50 | ≥ 50 | ≥ 50 | ≥ 50 | ≥ 50 | inhibition at 30 µM (SW480 (colon cancer); [7]): ≥ 50%
4 | CC1=C(CC(=O)O)c2cc(Cl)ccc2/C1=C\c1ccc(Oc2ccc(F)cc2)cc1 [C63, (Z)-2-(5-Chloro-1-(4-(4-fluorophenoxy)benzylidene)-2-methyl-1H-inden-3-yl)acetic acid] | 30 to 50 | ≥ 50 | < 30 | < 30 | 30 to 50 | 30 to 50 | 30 to 50 | 30 to 50 | ≥ 50 | ≥ 50 | 30 to 50 | ≥ 50 | < 30 | < 30 | – | – | – | – | – | – | inhibition at 30 µM ([1]; read-out: Antiproliferative activity in cancerous cells, MDA-MB-231): 30 to 50%; inhibition at 30 µM ([2]; read-out: Antiproliferative activity in cancerous cells, A549): 30 to 50%; inhibition at 30 µM (SW480 (colon cancer); read-out: Antiproliferative activity in cancerous cells, SW480): < 30%
